Values after ≈ are worked out from the molar mass of the structure shown.
What was measured:
[1] = system: Aspergillus fumigatus (ATCC 13073); assay: Body weight loss of Aspergillus fumigatus infected, immunocompromised, neutropenic mice; format: in vivo; conditions: 0.4 mg/mL intra-nasally, prophylactic; for Body weight loss caused by infection with A. fumigatus: % weight loss compared with day 0
Description: (§1) Aspergillus fumigatus (ATCC 13073 [strain: NIH 5233], American Type Culture Collection, Manassas, Va., USA) was grown on Malt agar (Nissui Pharmaceutical, Tokyo, Japan) plates for 6-7 days at RT (24±1° C.). Spores were aseptically dislodged from the agar plates and suspended in sterile distilled water with 0.05% Tween 80 and 0.1% agar. On the day of infection, spore counts were assessed by haemocytometer and the inoculum was adjusted to obtain a concentration of 1.67×10^8 spores mL^−1 of physiological saline.
(§2) On day 0, animals were infected with the spore suspension (35 μL intra-nasally).
(§3) Test compounds were administered intra-nasally (35 μL of a suspension of 0.08-2.00 mg/mL in physiological saline) once daily, 30 min before infection on day 0 and then on days 1, 2 and 3 (representing prophylactic treatment) or on days 1, 2 and 3 only (representing therapeutic treatment). For extended prophylactic treatment, test compounds (35 μL of a suspension of 0.0032 or 0.016 mg/mL in physiological saline) were administered intra-nasally once daily for seven days; then 30 min before infection on day 0, and thereafter, either on days 1, 2 and 3 after infection, or on day 0 only. The effects of these treatment paradigms were compared with those obtained when treatment was restricted to one day and 30 min before inoculation and then on days 1, 2 and 3 post infection; or reduced still further to one day and 30 min before infection only.

[2] = system: Aspergillus fumigatus (ATCC 13073); assay: In vivo anti-fungal activity: CFU in lung and galactomannan in BALF and serum; set-up: species or system mice; conditions: for ID50, GM in BALF / ID50, GM in serum / ID50, Lung Fungal Load: Prophylactic Regimen
Description: as §1, §2
as §3, with “([…])” for “(35 μL of a suspension of 0.08-2.00 mg/mL in physiological saline)”
Six hours after the last dose, animals were anesthetised, the trachea was cannulated and BALF was collected. The total number of alveolar cells was determined using a haemocytometer, and the numbers of alveolar macrophages and neutrophils were determined by FACS analysis (EPICS® ALTRA II, Beckman Coulter, Inc., Fullerton, Calif., USA) using anti-mouse MOMA2-FITC (macrophage) or anti-mouse 7/4 (neutrophil), respectively, as previously reported (Kimura et al., 2013). The levels of IFN-γ and IL-17 in BALF, and IL-6 and TNFα in serum were determined using Quantikine® mouse IFN-γ, IL-17, IL-6 or TNF-α ELISA kit (R&D systems, Inc., Minneapolis, Minn., USA) respectively. MDA, an oxidative stress marker, was assayed using OxiSelect® TBARS Assay Kits (MDA Quantitation; Cell Biolabs Inc, San Diego, Calif., USA). Aspergillus GM in serum was determination using Platelia GM-EIA kits (Bio-Rad Laboratories, Redmond, Wash., USA). Cut-off index was calculated by the formula: Cut-off index=OD in sample/OD in cut-off control provided in kit. For tissue fungal load assays, 100 mg of lung tissue was removed aseptically and homogenized in 0.2 mL of 0.1% agar in sterile distilled water. Serially diluted lung homogenates were plated on Malt agar plates (50 μL/plate), and incubated at 24±1° C. for 72 to 96 h. The colonies of A. fumigatus on each plate was counted and the fungal titre presented as CFU per gram of lung tissue.

[3] = Prophylactic Treatment, 0.08 mg/mL intra-nasally
[4] = Prophylactic Treatment, 0.4 mg/mL intra-nasally
[5] = Prophylactic Treatment, 2 mg/mL intra-nasally
[6] = Therapeutic Treatment, 0.4 mg/mL intra-nasally
[7] = Therapeutic Treatment, 2 mg/mL intra-nasally
[8] = Therapeutic Treatment, 10 mg/mL intra-nasally

## CC[C@@H]([C@H](C)O)n1ncn(-c2ccc(N3CCN(c4ccc(OC[C@@H]5CO[C@@](Cn6cncn6)(c6ccc(F)cc6F)C5)cc4)CC3)cc2)c1=O [Posaconazole]
[1]; Day 1
  % Inhibition of weight loss: 21%
  Body weight loss caused by infection with A. fumigatus: 7.3 ± 2.0%
[1]; Day 2
  % Inhibition of weight loss: 6%
  Body weight loss caused by infection with A. fumigatus: 13.4 ± 1.9%
[1]; Day 3
  % Inhibition of weight loss: 6%
  Body weight loss caused by infection with A. fumigatus: 18.1 ± 2.0%
[2]
  ID50, GM in BALF: 1300 µg/mL (≈ 1860 µM)
  ID50, GM in serum: 470 µg/mL (≈ 671 µM)
  ID50, Lung Fungal Load: 240 µg/mL (≈ 342 µM)

## Cc1cc(N2CCN(c3ccc(C(=O)Nc4ccc(F)cc4)cc3)CC2)ccc1OC[C@@H]1CO[C@@](Cn2cncn2)(c2ccc(F)cc2F)C1 [Compound (I), 4-(4-(4-(((3R,5R)-5-((1H-1,2,4-triazol-1-yl)methyl)-5-(2,4-difluorophenyl)tetrahydrofuran-3-yl)methoxy)-3-methylphenyl)piperazin-1-yl)-N-(4-fluorophenyl)benzamide]
[1]; Day 1
  % Inhibition of weight loss: 34%
  Body weight loss caused by infection with A. fumigatus: 6.1 ± 1.8%
[1]; Day 2
  % Inhibition of weight loss: 39%
  Body weight loss caused by infection with A. fumigatus: 8.7 ± 2.5%
[1]; Day 3
  % Inhibition of weight loss: 42%
  Body weight loss caused by infection with A. fumigatus: 11.1 ± 5.6%
[2]
  ID50, GM in BALF: <80 µg/mL
  ID50, GM in serum: <80 µg/mL
  ID50, Lung Fungal Load: 86 µg/mL (≈ 126 µM)
[2]; [3]
  CFU in lung: 15.2 ± 13.7 /mg of lung
  CFU in lung, % inhibition: 46%
  GM in BALF: 0.70 ± 0.39 COI
  GM in BALF, % inhibition: 85%
  GM in serum: 0.81 ± 0.52 COI
  GM in serum, % inhibition: 85%
[2]; [4]
  CFU in lung: 2.1 ± 1.6 /mg of lung
  CFU in lung, % inhibition: 93%
  GM in BALF: 0.37 ± 0.46 COI
  GM in BALF, % inhibition: 92%
  GM in serum: 0.24 ± 0.18 COI
  GM in serum, % inhibition: 95%
[2]; [5]
  CFU in lung: 0.8 ± 0.7 /mg of lung
  CFU in lung, % inhibition: 97%
  GM in BALF: 0.13 ± 0.02 COI
  GM in BALF, % inhibition: 97%
  GM in serum: 0.18 ± 0.07 COI
  GM in serum, % inhibition: 97%
[2]; [6]
  CFU in lung: 3.8 ± 1.0 /mg of lung
  CFU in lung, % inhibition: 87%
  GM in BALF: 0.24 ± 0.06 COI
  GM in BALF, % inhibition: 95%
  GM in serum: 0.29 ± 0.11 COI
  GM in serum, % inhibition: 95%
[2]; [7]
  CFU in lung: 1.9 ± 1.7 /mg of lung
  CFU in lung, % inhibition: 93%
  GM in BALF: 0.22 ± 0.14 COI
  GM in BALF, % inhibition: 95%
  GM in serum: 0.25 ± 0.19 COI
  GM in serum, % inhibition: 95%
[2]; [8]
  CFU in lung: 0.5 ± 0.3 /mg of lung
  CFU in lung, % inhibition: 98%
  GM in BALF: 0.11 ± 0.05 COI
  GM in BALF, % inhibition: 98%
  GM in serum: 0.24 ± 0.11 COI
  GM in serum, % inhibition: 95%

From patent publication US20210238169A1, “PROCESS FOR PREPARING A COMPOUND OF FORMULA (XIII)” (PULMOCIDE LIMITED, priority 2014, published 2021)
